Results from US20150175556A1, “DIHYDROPYRIMIDIN-2(1H)-ONES AND DIHYDROPYRIMIDIN-2(1H)-THIONES AS INHIBITORS OF SODIUM IODIDE SYMPORTER” (COMMISSARIAT A L'ENERGIE ATOMIQUE ET AUX ENERGIES …, priority 2012, published 2015).
Where two headings read alike, the source gives them in different places.

What was measured:
[1] = target: T1, sodium iodide symporter (NIS), iodide uptake in FRTL5 cells (Rattus norvegicus, UniProt Q63008); test: Inhibition of iodide uptake in FRTL5 cells, non radioactive arsenic/cerium assay; format: cell-based; details: NaI 10 μM, 1 hour, 20°C, read-out: IC50 (μM), inhibitory activity against iodide uptake in FRTL5 cells
T1 construct: endogenous in cells; host or cells: FRTL5 (rat thyroid-derived cells)
T1 sequence (Q63008 1-618): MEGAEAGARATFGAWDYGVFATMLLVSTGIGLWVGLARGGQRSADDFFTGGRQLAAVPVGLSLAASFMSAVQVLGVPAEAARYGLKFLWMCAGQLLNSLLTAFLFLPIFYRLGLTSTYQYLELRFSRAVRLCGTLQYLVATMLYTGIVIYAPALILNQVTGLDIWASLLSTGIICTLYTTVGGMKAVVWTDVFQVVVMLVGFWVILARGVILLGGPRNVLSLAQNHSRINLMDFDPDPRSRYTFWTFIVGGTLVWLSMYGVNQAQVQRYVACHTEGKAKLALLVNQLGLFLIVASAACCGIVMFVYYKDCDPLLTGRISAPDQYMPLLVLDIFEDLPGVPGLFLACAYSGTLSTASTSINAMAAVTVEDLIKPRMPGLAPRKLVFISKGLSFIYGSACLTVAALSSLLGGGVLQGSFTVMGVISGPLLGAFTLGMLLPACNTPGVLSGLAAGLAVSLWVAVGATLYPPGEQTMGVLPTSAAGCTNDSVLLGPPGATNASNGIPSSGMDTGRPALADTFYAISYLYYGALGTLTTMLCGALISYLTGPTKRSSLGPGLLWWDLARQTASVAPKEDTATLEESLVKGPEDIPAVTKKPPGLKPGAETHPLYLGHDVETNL
Experimental: Some of the synthesized compounds were evaluated for their ability to inhibit iodide entrapment in FRTL5 cells. The IC50 values were measured in at least […] independent experiments.
The biological activity of each compound was determined in FRTL5 cells, using a non radioactive arsenic/cerium assay as described in F. Waltz et al., Anal. Biochem., 2012, 396, 91-95. Compound potency was expressed as IC50, the concentration of compound necessary to achieve 50% inhibition of iodide uptake. Briefly, to FRTL5 cells at 70-90% confluence was added compound (200 μM, 10 μM, 0.5 μM, 25 nM, 1.2 nM, 60 pM, […], and 0.15 pM final), followed by NaI (10 μM final). After 1 hour incubation at 20±1° C., supernatant was removed and the cells were immediately assayed for iodide content using the modified As/Ce Sandell-Kolthoff reaction. NaClO4 was tested in each microplate as assay controls. The IC50 values of all compounds were measured least thrice independently.
Stock solutions of tested compounds were prepared in DMSO (20 mM) and that of NaClO4 in water (20 mM). These stock solutions were stored at 4° C. for up to 2 months. Sample dilutions: the day of the assay, a daughter plate (clear flat-bottomed 96-well polystyrene microplates, Costar 9017) was prepared from 20 mM stock solutions. NaClO4 (column 2) and DHPM samples (columns 4 to 11) were diluted at 10× the final concentration in uptake buffer.
FRTL5 cells were cultured as described in F. S. Ambesi-Impiombato et al., Proc. Natl. Acad. Sci. USA, 1980, 77, 3455-3459. Briefly, FRTL5 cells were cultured in Coon's modified F12 medium supplemented with 5% heat-inactivated fetal bovine serum (Invitrogen), 2 mM L-glutamine, 100 U/mL penicillin, 0.1 mg/mL streptomycin, 10 μg/mL insulin, 10 nM hydrocortisone, 10 ng/mL Gly-His-Lys acetate, 1 mU/mL TSH, 5 μg/mL transferrin at 37° C. and 5% CO2. For iodide uptake assays, 200 μL of FRTL5 cells with density of 250,000 cells/mL were dispensed in each well of clear flat-bottomed 96-well polystyrene microplates (Costar 3628) using the Multidrop 384 (ThermoFisher Scientific), and further cultured until confluence reached 80-90% (3-4 days).
The culture medium of FRTL5 monolayer cells at 80-90% confluence was replaced by uptake buffer (20° C.) via continuous aspiration/dispense cycle (600 μL) using a 96-needle head plate washer PW 384 (Tecan). The 96-needle head was set to a vertical position such that 80 μL of fresh uptake buffer remained in each well at the end of the cycle. The samples (10 μL each) from the daughter plate were transferred all at once to the assay plate using the 96-tip head pipettor Liquidator 96 (Mettler Toledo). Immediately after, 10 μL of a NaI solution at 100 μM was added to each well of the assay plate using the Liquidator 96. The assay plate was left to stand in the dark at 20±1° C. for 60 min. The assay plate was then washed with cold (4° C.) uptake buffer using the PW 384 plate washer and residual supernatant was immediately discarded by inverting the assay plate on absorbent paper.
Sodium iodide standards (S1 to S7) and water (S0) were distributed in duplicate (100 μL each) in the first and last column of the assay plate. Water (100 μL) was added to the columns with the Multidrop 384. 100 μL of the ammonium cerium (IV) sulfate solution (10.5 mM) was distributed into the columns, followed by 100 μL of the sodium arsenite (III) solution (24 mM) using the Multidrop 384. The assay plate was left to stand at 20±1° C. for 30 min. The absorbance at 420 nm (Abs420) was immediately recorded on a SpectraMax Plus 384 (Molecular Devices). A calibration curve was prepared for each plate by plotting the logarithmic conversion of the means of Abs420 (n=2) vs iodide standard concentrations (S0 to S7). The iodide concentrations in the samples were determined after linear regression of the calibration curve.

[2] = Table 1, variations at R1, averaged from three or four independent experiments
[3] = Table 2, variations at R5, averaged from three or four independent experiments
[4] = Table 5, variations at Y, R1, R3, R4, R5, averaged from two to four independent experiments
[5] = Table 4, variations at X, R3, R4, averaged from three or four independent experiments
[6] = Table 3, variations at R2, averaged from three or four independent experiments

| Compound | IC50 [1, 2] | melting point | other results |
| --- | --- | --- | --- |
| COc1ccc(COC(=O)C2=C(C)NC(=O)NC2c2cccc(F)c2)cc1 (stereo not shown) [Compound 24, 4-Methoxybenzyl 4-(3-fluorophenyl)-6-methyl-2-oxo-1,2,3,4-tetrahydropyrimidine-5-carboxylate] | 0.075 µM | 173 to 174 °C | – |
| CC1=C(C(=O)OCc2ccc(F)cc2)C(c2ccccc2)NC(=O)N1 (stereo not shown) [Compound 35, 4-Fluorobenzyl 6-methyl-2-oxo-4-phenyl-1,2,3,4-tetrahydropyrimidine-5-carboxylate] | – | 196 to 197 °C | IC50 [1, 3]: 0.2 µM |
| COc1ccc(COC(=O)C2=C(C)NC(=O)NC2c2ccsc2)cc1 (stereo not shown) [Compound 31, 4-Methoxybenzyl 6-methyl-2-oxo-4-(thiophen-3-yl)-1,2,3,4-tetrahydropyrimidine-5-carboxylate] | 0.04 µM | 156 to 158 °C | – |
| COc1ccc(COC(=O)C2=C(C)NC(=O)NC2c2cccc(Cl)c2)cc1 (stereo not shown) [Compound 22, 4-Methoxybenzyl 4-(3-chlorophenyl)-6-methyl-2-oxo-1,2,3,4-tetrahydropyrimidine-5-carboxylate] | 0.1 µM | 180 to 181 °C | – |
| COc1ccc(COC(=O)C2=C(C)NC(=O)NC2C2CC2)cc1 (stereo not shown) [Compound 26, 4-Methoxybenzyl 4-cyclopropyl-6-methyl-2-oxo-1,2,3,4-tetrahydropyrimidine-5-carboxylate] | 0.75 µM | 158 to 160 °C | – |
| CC1=C(C(=O)OCc2ccccc2Cl)C(c2ccccc2)NC(=O)N1 (stereo not shown) [Compound 33, 2-Chlorobenzyl 6-methyl-2-oxo-4-phenyl-1,2,3,4-tetrahydropyrimidine-5-carboxylate] | – | 193 to 195 °C | IC50 [1, 3]: 0.35 µM |
| CC1=C(C(=O)OCc2ccc3c(c2)OCO3)C(c2ccco2)NC(=O)N1 (stereo not shown) [Compound 59, benzo[d][1,3]dioxol-5-ylmethyl 4-(furan-2-yl)-6-methyl-2-oxo-1,2,3,4-tetrahydropyrimidine-5-carboxylate] | – | 169 to 171 °C | IC50 [1, 4]: 0.004 µM |
| COc1ccc(COC(=O)C2=C(C)NC(=S)NC2c2ccccc2)cc1 (stereo not shown) [Compound 52, 4-methoxybenzyl 6-methyl-4-phenyl-2-thioxo-1,2,3,4-tetrahydropyrimidine-5-carboxylate] | – | 174 to 175 °C | IC50 [1, 5]: 0.095 µM |
| COc1cccc(COC(=O)C2=C(C)NC(=O)NC2c2ccco2)c1 (stereo not shown) [Compound 55, 3-methoxybenzyl 4-(furan-2-yl)-6-methyl-2-oxo-1,2,3,4-tetrahydropyrimidine-5-carboxylate] | – | 165 to 166 °C | IC50 [1, 4]: 0.00057 µM |
| COc1ccc(COC(=O)C2=C(C)NC(=O)NC2c2ccccc2F)cc1 (stereo not shown) [Compound 23, 4-Methoxybenzyl 4-(2-fluorophenyl)-6-methyl-2-oxo-1,2,3,4-tetrahydropyrimidine-5-carboxylate] | 0.065 µM | 181 to 183 °C | – |
| COc1ccc(COC(=O)C2=C(C)N(C)C(=O)NC2c2ccccc2)cc1 (stereo not shown) [Compound 50, 4-Methoxybenzyl 1,6-dimethyl-2-oxo-4-phenyl-1,2,3,4-tetrahydropyrimidine-5-carboxylate] | – | 134 to 136 °C | IC50 [1, 5]: 0.075 µM |
| COc1ccc(COC(=O)C2=C(C)NC(=O)NC2c2cccc(Br)c2)cc1 (stereo not shown) [Compound 21, 4-Methoxybenzyl 4-(3-bromophenyl)-6-methyl-2-oxo-1,2,3,4-tetrahydropyrimidine-5-carboxylate] | 0.35 µM | 164 to 166 °C | – |
| COc1ccc(COC(=O)C2=C(C)NC(=O)NC2c2ccco2)cc1 (stereo not shown) [Compound 27, 4-methoxybenzyl 4-(furan-2-yl)-6-methyl-2-oxo-1,2,3,4-tetrahydropyrimidine-5-carboxylate] | 0.0032 µM | 158 to 159 °C | – |
| COc1cccc(COC(=O)C2=C(C)N(C)C(=O)NC2c2ccco2)c1 (stereo not shown) [Compound 56, 3-Methoxybenzyl 4-(furan-2-yl)-1,6-dimethyl-2-oxo-1,2,3,4-tetrahydropyrimidine-5-carboxylate] | – | 155 to 156 °C | IC50 [1, 4]: 0.075 µM |
| COc1ccc(COC(=O)C2=C(C)NC(=O)NC2c2ccc(C)o2)cc1 (stereo not shown) [Compound 29, 4-Methoxybenzyl 6-methyl-2-oxo-4-(5-methylfuran-2-yl)-1,2,3,4-tetrahydropyrimidine-5-carboxylate] | 0.09 µM | 157 to 159 °C | – |
| COc1ccc(COC(=O)C2=C(C)N(C)C(=O)N(C)C2c2ccco2)cc1OC (stereo not shown) [Compound 58, 3,4-Dimethoxybenzyl 4-(furan-2-yl)-1,3,6-trimethyl-2-oxo-1,2,3,4-tetrahydropyrimidine-5-carboxylate] | – | 122 to 124 °C | IC50 [1, 4]: 0.065 µM |
| CCC1=C(C(=O)OCc2ccc(OC)cc2)C(c2ccccc2)NC(=O)N1 (stereo not shown) [Compound 40, 4-Methoxybenzyl 6-ethyl-2-oxo-4-phenyl-1,2,3,4-tetrahydropyrimidine-5-carboxylate] | – | 62 to 65 °C | IC50 [1, 6]: 0.07 µM |
| COc1ccc(COC(=O)C2=C(c3cccs3)NC(=O)NC2c2ccccc2)cc1 (stereo not shown) [Compound 48, 4-Methoxybenzyl 2-oxo-4-phenyl-6-(thiophen-2-yl)-1,2,3,4-tetrahydropyrimidine-5-carboxylate] | – | 78 to 80 °C | IC50 [1, 6]: 0.55 µM |
| CC1=C(C(=O)OCc2ccc3c(c2)OCO3)C(c2ccoc2)NC(=O)N1 (stereo not shown) [Compound 62, Benzo[d][1,3]dioxol-5-ylmethyl 4-(furan-3-yl)-6-methyl-2-oxo-1,2,3,4-tetrahydropyrimidine-5-carboxylate] | – | 172 to 173 °C | IC50 [1, 4]: 0.037 µM |
| CC1=C(C(=O)OCc2ccc(Cl)cc2)C(c2ccccc2)NC(=O)N1 (stereo not shown) [Compound 34, 4-Chlorobenzyl 6-methyl-2-oxo-4-phenyl-1,2,3,4-tetrahydropyrimidine-5-carboxylate] | – | 216 to 217 °C | IC50 [1, 3]: 0.3 µM |
